The results in this text go back to patent publication US10023570B2 (Array BioPharma, Inc., priority 2015, dated 2018).

The target in the assay is human KDR protein in HEK-293 cells (Homo sapiens (Human), UniProt P35968). Briefly: KDR Cell Assay (phospho-KDR in HEK-293 cells expressing inducible KDR). Format: cell-based. As to conditions: pKDR Cell HEK 10% FBS IC50, HEK-293 cells expressing inducible KDR, VEGF stimulated. In a few lines: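 HEK-293 cells with inducible human KDR were treated with compound for 1 h in DMEM (0.25% DMSO final), then lysed. Phospho-KDR was quantified by Meso Scale immunoassay, expressed as percent of control, and IC50 taken where a 4-parameter logistic fit crossed 50 POC.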

Structures can show the parent of a compound that is named as a salt.

Sequence of human KDR protein in HEK-293 cells (P35968 20-1356): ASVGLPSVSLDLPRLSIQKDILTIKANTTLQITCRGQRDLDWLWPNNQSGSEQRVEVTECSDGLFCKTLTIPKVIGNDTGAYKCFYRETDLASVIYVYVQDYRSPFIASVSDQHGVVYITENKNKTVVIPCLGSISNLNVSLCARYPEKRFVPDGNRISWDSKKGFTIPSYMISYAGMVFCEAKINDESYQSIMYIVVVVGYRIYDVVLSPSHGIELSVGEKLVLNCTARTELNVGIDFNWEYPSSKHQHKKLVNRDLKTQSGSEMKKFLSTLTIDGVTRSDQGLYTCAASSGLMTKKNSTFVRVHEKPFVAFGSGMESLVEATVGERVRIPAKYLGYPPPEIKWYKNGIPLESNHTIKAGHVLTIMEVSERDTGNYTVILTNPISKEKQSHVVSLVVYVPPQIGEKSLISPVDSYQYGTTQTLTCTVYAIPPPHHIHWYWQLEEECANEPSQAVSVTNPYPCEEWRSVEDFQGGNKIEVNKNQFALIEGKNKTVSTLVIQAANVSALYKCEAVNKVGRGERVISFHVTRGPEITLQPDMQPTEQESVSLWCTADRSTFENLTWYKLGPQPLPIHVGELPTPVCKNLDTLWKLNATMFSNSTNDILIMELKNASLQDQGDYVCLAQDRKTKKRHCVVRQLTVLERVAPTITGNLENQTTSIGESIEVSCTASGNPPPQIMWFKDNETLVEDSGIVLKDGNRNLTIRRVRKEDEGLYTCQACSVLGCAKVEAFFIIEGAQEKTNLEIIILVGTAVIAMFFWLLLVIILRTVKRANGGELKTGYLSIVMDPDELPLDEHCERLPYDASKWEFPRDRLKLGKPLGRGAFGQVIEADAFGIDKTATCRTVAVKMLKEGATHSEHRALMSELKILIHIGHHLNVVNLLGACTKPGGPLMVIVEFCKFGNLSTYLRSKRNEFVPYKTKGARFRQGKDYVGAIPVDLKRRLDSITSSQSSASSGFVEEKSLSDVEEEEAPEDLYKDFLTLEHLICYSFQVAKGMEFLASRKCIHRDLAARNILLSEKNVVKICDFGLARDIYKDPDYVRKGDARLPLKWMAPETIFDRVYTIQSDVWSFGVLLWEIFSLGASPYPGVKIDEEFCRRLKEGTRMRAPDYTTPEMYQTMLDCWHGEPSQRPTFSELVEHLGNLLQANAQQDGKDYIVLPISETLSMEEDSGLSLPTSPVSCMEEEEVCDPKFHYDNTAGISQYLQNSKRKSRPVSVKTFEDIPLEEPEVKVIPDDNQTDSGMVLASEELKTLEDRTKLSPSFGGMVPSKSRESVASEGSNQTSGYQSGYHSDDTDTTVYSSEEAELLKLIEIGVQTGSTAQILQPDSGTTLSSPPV

For the compound `Cn1cc(-c2cc(-c3ccc(N4CCN(C(=O)C[C@H](O)c5ccccc5)CC4)nc3)c3c(C#N)cnn3c2)cn1` [Example 8, (S)-4-(6-(4-(3-hydroxy-3-phenylpropanoyl)piperazin-1-yl)pyridin-3-yl)-6-(1-methyl-1H-pyrazol-4-yl)pyrazolo[1,5-a]pyridine-3-carbonitrile], half-maximal inhibition (10% FBS) (IC50) required 98.9 nM. This counts as double-digit nanomolar.
As for `Cn1cc(-c2cc(-c3ccc(N4CCN(C(=O)C(C)(C)c5ccccc5)CC4)nc3)c3c(C#N)cnn3c2)cn1` [Example 26, 6-(1-methyl-1H-pyrazol-4-yl)-4-(6-(4-(2-methyl-2-phenylpropanoyl)piperazin-1-yl)pyridin-3-yl)pyrazolo[1,5-a]pyridine-3-carbonitrile], the IC50 (10% FBS) worked out at 476 nM.
The compound `Cn1cc(-c2cc(-c3ccc(N4CCN(C(=O)c5ccccc5)CC4)nc3)c3c(C#N)cnn3c2)cn1` [Example 69, 4-(6-(4-benzoylpiperazin-1-yl)pyridin-3-yl)-6-(1-methyl-1H-pyrazol-4-yl)pyrazolo[1,5-a]pyridine-3-carbonitrile] returned an IC50 (10% FBS) of 117 nM.
As to `Cn1cc(-c2cc(-c3ccc(N4CCC5(CCCN5)CC4)nc3)c3c(C#N)cnn3c2)cn1` [Example 541, 4-(6-(1,8-diazaspiro[4.5]decan-8-yl)pyridin-3-yl)-6-(1-methyl-1H-pyrazol-4-yl)pyrazolo[1,5-a]pyridine-3-carbonitrile dihydrochloride], half-maximal inhibition (IC50) required 534 nM.
Take `Cn1cc(-c2cc(-c3ccc(N4CCC5(CC4)CN(C(=O)Cc4ccccc4)C5)nc3)c3c(C#N)cnn3c2)cn1` [Example 218, 6-(1-methyl-1H-pyrazol-4-yl)-4-(6-(2-(2-phenylacetyl)-2,7-diazaspiro[3.5]nonan-7-yl)pyridin-3-yl)pyrazolo[1,5-a]pyridine-3-carbonitrile]: the IC50 (10% FBS) turned out to be 4790 nM.
Consider `CN(C(=O)N1CCN(c2ccc(-c3cc(-c4cnn(C)c4)cn4ncc(C#N)c34)cn2)CC1)C1CC1` [Example 386, 4-(5-(3-cyano-6-(1-methyl-1H-pyrazol-4-yl)pyrazolo[1,5-a]pyridine-4-yl)pyridin-2-yl)-N-cyclopropyl-N-methylpiperazine-1-carboxamide 2,2,2-trifluoroacetate], for which it took 1410 nM to reach half-maximal inhibition (IC50). In other words, the single-digit micromolar range.
The compound `Cn1cc(-c2cc(-c3ccc(N4CCN(C(=O)N5CCC[C@H]5C(F)(F)F)CC4)nc3)c3c(C#N)cnn3c2)cn1` [Example 113, (S)-6-(1-methyl-1H-pyrazol-4-yl)-4-(6-(4-(2-(trifluoromethyl)pyrrolidine-1-carbonyl)piperazin-1-yl)pyridin-3-yl)pyrazolo[1,5-a]pyridine-3-carbonitrile] yielded an IC50 (10% FBS) of 654 nM. This counts as sub-micromolar.
Compound `Cn1cc(-c2cc(-c3ccc(N4CC5(CCOC5)C4)nc3)c3c(C#N)cnn3c2)cn1` [Example 528, 4-(6-(6-oxa-2-azaspiro[3.4]octan-2-yl)pyridin-3-yl)-6-(1-methyl-1H-pyrazol-4-yl)pyrazolo[1,5-a]pyridine-3-carbonitrile 2,2,2-trifluoroacetate] had an IC50 of 1670 nM.
`Cn1cc(-c2cc(-c3ccc(N4CCN(C(=O)[C@@H](N)c5ccccc5)CC4)nc3)c3c(C#N)cnn3c2)cn1` [Example 50, (S)-4-(6-(4-(2-amino-2-phenylacetyl)piperazin-1-yl)pyridin-3-yl)-6-(1-methyl-1H-pyrazol-4-yl)pyrazolo[1,5-a]pyridine-3-carbonitrile bis(2,2,2-trifluoroacetate)] came in with an IC50 (10% FBS) of 1190 nM.
For the compound `Cn1cc(-c2cc(-c3ccc(N4CCN(C(=O)[C@H](O)Cc5ccccc5)CC4)nc3)c3c(C#N)cnn3c2)cn1` [Example 9, (R)-4-(6-(4-(2-hydroxy-3-phenylpropanoyl)piperazin-1-yl)pyridin-3-yl)-6-(1-methyl-1H-pyrazol-4-yl)pyrazolo[1,5-a]pyridine-3-carbonitrile], where the note is “10% FBS”, it took 32.7 nM to reach half-maximal inhibition (IC50). Compared with the last compound, the IC50 is about 36-fold lower.
Turning to `Cn1cc(-c2cc(-c3ccc(N4CCN(C(=O)[C@@H]5CCCO5)CC4)nc3)c3c(C#N)cnn3c2)cn1` [Example 60, (S)-6-(1-methyl-1H-pyrazol-4-yl)-4-(6-(4-(tetrahydrofuran-2-carbonyl)piperazin-1-yl)pyridin-3-yl)pyrazolo[1,5-a]pyridine-3-carbonitrile], under “10% FBS”, the IC50 was 376 nM. Compared with the last compound, the IC50 is about 11-fold higher.
`Cn1cc(-c2cc(-c3ccc(N4CC5(CCCN5C(=O)OCc5ccccc5)C4)nc3)c3c(C#N)cnn3c2)cn1` [Example 525, benzyl 2-(5-(3-cyano-6-(1-methyl-1H-pyrazol-4-yl)pyrazolo[1,5-a]pyridin-4-yl)pyridin-2-yl)-2,5-diazaspiro[3.4]octane-5-carboxylate 2,2,2-trifluoroacetate] registered an IC50 of 1580 nM. That is a single-digit micromolar value.
For `Cn1cc(-c2cc(-c3ccc(N4CCN(CC5CC(F)(F)C5)CC4)nc3)c3c(C#N)cnn3c2)cn1` [Example 459, 4-(6-(4-((3,3-difluorocyclobutyl)methyl)piperazin-l-yl)pyridin-3-yl)-6-(1-methyl-1H-pyrazol-4-yl)pyrazolo[1,5-a]pyridine-3-carbonitrile], the IC50 is no less than 5000 nM.
In the case of `Cn1cc(-c2cc(-c3ccc(N4CCN(C(=O)C5(c6cccnc6)CC5)CC4)nc3)c3c(C#N)cnn3c2)cn1` [Example 369, 6-(1-methyl-1H-pyrazol-4-yl)-4-(6-(4-(1-(pyridine-3-yl)cyclopropane-1-carbonyl)piperazin-1-yl)pyridin-3-yl)pyrazolo[1,5-a]pyridine-3-carbonitrile bis(2,2,2-trifluoroacetate)], half-maximal inhibition (10% FBS) (IC50) required 1270 nM.
Compound `CN1CCCC2(CCN(c3ccc(-c4cc(-c5cnn(C)c5)cn5ncc(C#N)c45)cn3)CC2)C1` [Example 556, 6-(1-methyl-1H-pyrazol-4-yl)-4-(6-(2-methyl-2,9-diazaspiro[5.5]undecan-9-yl)pyridin-3-yl)pyrazolo[1,5-a]pyridine-3-carbonitrile] displayed an IC50 of 1900 nM. In other words, the single-digit micromolar range.
`Cn1cc(-c2cc(-c3ccc(C4CCNCC4)cc3)c3c(C#N)cnn3c2)cn1` [Example 301, 6-(1-methyl-1H-pyrazol-4-yl)-4-(4-(piperidin-4-yl)phenyl)pyrazolo[1,5-a]pyridine-3-carbonitrile dihydrochloride] displayed an IC50 (10% FBS) of 158 nM.
Regarding `CO[C@H]1CCN(C(=O)N2CCN(c3ccc(-c4cc(-c5ccn(C)n5)cn5ncc(C#N)c45)cn3)CC2)C1` [Example 274, (S)-4-(6-(4-(3-methoxypyrrolidine-1-carbonyl)piperazin-1-yl)pyridin-3-yl)-6-(1-methyl-1H-pyrazol-3-yl)pyrazolo[1,5-a]pyridine-3-carbonitrile], the IC50 (10% FBS) is no less than 5000 nM.
On to `Cn1cc(-c2cc(-c3ccc(N4CCC5(CCCOC5)C4)nc3)c3c(C#N)cnn3c2)cn1` (stereo not drawn) [Example 529, 4-(6-(7-oxa-2-azaspiro[4.5]decan-2-yl)pyridin-3-yl)-6-(1-methyl-1H-pyrazol-4-yl)pyrazolo[1,5-a]pyridine-3-carbonitrile], for which the IC50 is no less than 5000 nM.
`CN1CCC2(CCCN(c3ccc(-c4cc(-c5cnn(C)c5)cn5ncc(C#N)c45)cn3)C2)CC1` [Example 555, 6-(1-methyl-1H-pyrazol-4-yl)-4-(6-(9-methyl-2,9-diazaspiro[5.5]undecan-2-yl)pyridin-3-yl)pyrazolo[1,5-a]pyridine-3-carbonitrile] displayed an IC50 of 1030 nM. In other words, the single-digit micromolar range.
In the case of `Cn1cc(-c2cc(-c3ccc(N4CCN(C(=O)N5CC6COCC6C5)CC4)nc3)c3c(C#N)cnn3c2)cn1` (stereo not drawn) [Example 123, 4-(6-(4-(hexahydro-1H-furo[3,4-c]pyrrole-5-carbonyl)piperazin-1-yl)pyridin-3-yl)-6-(1-methyl-1H-pyrazol-4-yl)pyrazolo[1,5-a]pyridine-3-carbonitrile], for the setting “10% FBS”, the half-maximal inhibitory concentration (IC50) is 1610 nM.
On to `CN1CCCC12CCCN(c1ccc(-c3cc(-c4cnn(C)c4)cn4ncc(C#N)c34)cn1)C2` (stereo not drawn) [Example 557, 4-(6-(1-methyl-1,7-diazaspiro[4.5]decan-7-yl)pyridin-3-yl)-6-(1-methyl-1H-pyrazol-4-yl)pyrazolo[1,5-a]pyridine-3-carbonitrile], for which half-maximal inhibition (IC50) required 802 nM.
Same read-out and setting: the result for `Cn1cc(-c2cc(-c3ccc(N4CCN(Cc5cccc(F)c5)CC4)nc3)c3c(C#N)cnn3c2)cn1` [Example 428, 4-(6-(4-(3-fluorobenzyl)piperazin-1-yl)pyridin-3-yl)-6-(1-methyl-1H-pyrazol-4-yl)pyrazolo[1,5-a]pyridine-3-carbonitrile] reads 880 nM.
For `Cn1cc(-c2cc(-c3ccc(N4CCN(C(=O)N5CCC(F)(F)CC5)CC4)nc3)c3c(C#N)cnn3c2)cn1` [Example 115, 4-(6-(4-(4,4-difluoropiperidine-1-carbonyl)piperazin-1-yl)pyridin-3-yl)-6-(1-methyl-1H-pyrazol-4-yl)pyrazolo[1,5-a]pyridine-3-carbonitrile], under “10% FBS”, the IC50 was found to be 3180 nM.
Take `Cc1ncc(-c2cc(-c3ccc(N4CCN(Cc5ccccc5)CC4)nc3)c3c(C#N)cnn3c2)o1` [Example 628, 4-(6-(4-benzylpiperazin-1-yl)pyridin-3-yl)-6-(2-methyloxazol-5-yl)pyrazolo[1,5-a]pyridine-3-carbonitrile]: the IC50 was no less than 5000 nM.
Regarding `Cn1cc(-c2cc(-c3ccc(N4CCC(c5ccc(Cl)cc5)CC4)nc3)c3c(C#N)cnn3c2)cn1` [Example 534, 4-(6-(4-(4-chlorophenyl)piperidin-1-yl)pyridin-3-yl)-6-(1-methyl-1H-pyrazol-4-yl)pyrazolo[1,5-a]pyridine-3-carbonitrile 2,2,2-trifluoroacetate], it took 12.5 nM to reach half-maximal inhibition (IC50).
For the setting “10% FBS”, `Cn1cc(-c2cc(-c3ccc(N4CCN(CCc5ccc(Cl)cc5)CC4)nc3)c3c(C#N)cnn3c2)cn1` [Example 140, 4-(6-(4-(4-chlorophenethyl)piperazin-1-yl)pyridin-3-yl)-6-(1-methyl-1H-pyrazol-4-yl)pyrazolo[1,5-a]pyridine-3-carbonitrile] returned an IC50 of 712 nM. This counts as sub-micromolar.
`Cn1cc(-c2cc(-c3ccc(N4CC[C@H](C(=O)NCCC(F)(F)F)C4)nc3)c3c(C#N)cnn3c2)cn1` [Example 262, (S)-1-(5-(3-cyano-6-(1-methyl-1H-pyrazol-4-yl)pyrazolo[1,5-a]pyridin-4-yl)pyridin-2-yl)-N-(3,3,3-trifluoropropyl)pyrrolidine-3-carboxamide] returned an IC50 (10% FBS) of 617 nM.

One may read the IC50 as the concentration that inhibits the measured activity by half. Read a low IC50 as higher potency.
